Measurements from the supplement of paper PMC7017272.
± gives the standard deviation of the averaged measurements.

How the values were obtained:
Settings in all cases: treatment time: 3 days
UT-SCC-24A [1] = test: maximal % inhibition of viability relative to DMSO; higher = stronger effect
Description: (§1)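 HNSCC cell lines (500 cells/well, 384-well) were cultured on plastic, on top of (2D) or embedded (3D) in Matrigel or human leiomyoma matrix Myogel (500 ug/mL; Myogel 3D mixed with rat collagen I). Cells were treated for 3 days with 5 ten-fold concentrations of each drug, and viability was read by CellTiter-Glo. Viability was normalised to DMSO (0% inhibition) and 100 uM benzethonium chloride (100% inhibition) controls and fitted with the FIMM DSRT pipeline to give IC50 (nM), maximal % inhibition and the drug sensitivity score (DSS). Suffixes _1/_2/_3 on drug names are replicates.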

UT-SCC-106A [2] = test: drug sensitivity score (DSS); higher = more sensitive; extreme values may be limits of the assay
Procedure, shortened: (§2)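 The FIMM pipeline was used to fit percent-inhibition dose–response curves, giving IC50, maximal inhibition and drug sensitivity score. Input data were CellTiter-Glo 2.0 luminescence readings, normalised to vehicle (0.1% DMSO) and cell-killing control wells, from HPV-negative HNSCC cell lines seeded at 500 cells/well in 384-well plates. Cells sat on plastic, on Matrigel or Myogel coatings (500 µg/mL), or within Matrigel or Myogel plus rat collagen I, and received compounds at five 10-fold concentrations for 3 days.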

UT-SCC-14 [3] = test: as above
Procedure, shortened: as §2

UT-SCC-24B = test: as above
Procedure, shortened: as §2

UT-SCC-28 = test: as above
Procedure, shortened: as §2

UT-SCC-40 = test: as above
Procedure, shortened: as §2

UT-SCC-42A [4] = test: as above
Procedure, shortened: as §2

UT-SCC-42B [5] = test: as above
Procedure, shortened: as §2

UT-SCC-44 [6] = test: as above
Procedure, shortened: as §2

UT-SCC-73 [7] = test: as above
Procedure, shortened: as §2

UT-SCC-81 = test: as above
Procedure, shortened: as §2

UT-SCC-8 [8] = test: as above
Procedure, shortened: as §2

UT-SCC-106A [9] = test: relative IC50 (midpoint of the fitted curve; maximal inhibition may be below 50%); higher = less potent
Procedure, shortened: as §2

UT-SCC-14 [10] = test: as above
Procedure, shortened: as §2

UT-SCC-42A [11] = test: as above
Procedure, shortened: as §2

UT-SCC-42B [12] = test: as above
Procedure, shortened: as §2

UT-SCC-44 [13] = test: as above
Procedure, shortened: as §2

UT-SCC-73 [14] = test: as above
Procedure, shortened: as §2

UT-SCC-8 [15] = test: as above
Procedure, shortened: as §2

UT-SCC-24A [16] = test: relative IC50 (midpoint of the fitted curve; maximal inhibition may be below 50%); higher = less potent
Description: as §1

[17] = culture condition: embedded in Matrigel
[18] = culture condition: embedded in Myogel + collagen I
[19] = culture condition: on top of Matrigel
[20] = culture condition: on top of Myogel
[21] = culture condition: plastic 2D (no matrix)

`O=C(NC[C@H](O)CO)c1ccncc1Nc1ccc(I)cc1F` [Pimasertib] was tested, and the “maximal % inhibition of viability” value (UT-SCC-24A [1]; [17]) was 85 ± 0.94%, the “maximal % inhibition of viability” value (UT-SCC-24A [1]; [18]) was 77.9 ± 2.9% and the “maximal % inhibition of viability” value (UT-SCC-24A [1]; [19]) was 81.4 ± 1.8%. For the same molecule, the “maximal % inhibition of viability” value (UT-SCC-24A [1]; [20]) was 68 ± 3.4%, the “maximal % inhibition of viability” value (UT-SCC-24A [1]; [21]) was 79.3 ± 2.7% and the drug sensitivity score (UT-SCC-106A [2]; [17]) was 19.4 ± 0.44 DSS. The drug sensitivity score (UT-SCC-106A [2]; [18]) was 5.6 ± 0.27 DSS, the drug sensitivity score (UT-SCC-106A [2]; [19]) was 22.2 ± 0.52 DSS and the drug sensitivity score (UT-SCC-106A [2]; [20]) was 6.27 ± 0.74 DSS. The drug sensitivity score (UT-SCC-106A [2]; [21]) was 22.2 ± 0.74 DSS, the drug sensitivity score (UT-SCC-14 [3]; [17]) was 13.9 ± 3.4 DSS and the drug sensitivity score (UT-SCC-14 [3]; [18]) was 12.2 ± 5.1 DSS. For the same molecule, the drug sensitivity score (UT-SCC-14 [3]; [19]) was 10.6 ± 2.3 DSS, the drug sensitivity score (UT-SCC-14 [3]; [20]) was 8.27 ± 2.3 DSS and the drug sensitivity score (UT-SCC-14 [3]; [21]) was 8.03 ± 3.4 DSS. For the same molecule, the drug sensitivity score (UT-SCC-24B; [17]) was 15.6 ± 1.2 DSS, the drug sensitivity score (UT-SCC-24B; [18]) was 14.4 ± 2 DSS and the drug sensitivity score (UT-SCC-24B; [19]) was 15 ± 0.9 DSS. It also gave a drug sensitivity score (UT-SCC-24B; [20]) of 9.1 ± 0.61 DSS, a drug sensitivity score (UT-SCC-24B; [21]) of 20.3 ± 1.8 DSS and a drug sensitivity score (UT-SCC-28; [17]) of 12 ± 2.6 DSS. It also gave a drug sensitivity score (UT-SCC-28; [18]) of 9.97 ± 5.3 DSS, a drug sensitivity score (UT-SCC-28; [19]) of 11.4 ± 1.6 DSS and a drug sensitivity score (UT-SCC-28; [21]) of 5.03 ± 1.1 DSS. It also gave a drug sensitivity score (UT-SCC-40; [17]) of 27.63 ± 0.058 DSS, a drug sensitivity score (UT-SCC-40; [18]) of 20.2 ± 1.9 DSS and a drug sensitivity score (UT-SCC-40; [19]) of 23.8 ± 1.2 DSS. For the same molecule, the drug sensitivity score (UT-SCC-40; [20]) was 14.9 ± 0.91 DSS, the drug sensitivity score (UT-SCC-40; [21]) was 15.5 ± 0.85 DSS and the drug sensitivity score (UT-SCC-42A [4]; [17]) was 20.9 ± 0.5 DSS. For the same molecule, the drug sensitivity score (UT-SCC-42A [4]; [18]) was 9.43 ± 1.3 DSS, the drug sensitivity score (UT-SCC-42A [4]; [19]) was 20.5 ± 1.6 DSS and the drug sensitivity score (UT-SCC-42A [4]; [20]) was 12.8 ± 0.46 DSS. The drug sensitivity score (UT-SCC-42A [4]; [21]) was 16.33 ± 0.12 DSS, the drug sensitivity score (UT-SCC-42B [5]; [17]) was 24.5 ± 2.7 DSS and the drug sensitivity score (UT-SCC-42B [5]; [19]) was 16.2 ± 1 DSS. For the same molecule, the drug sensitivity score (UT-SCC-42B [5]; [20]) was 9.77 ± 0.96 DSS, the drug sensitivity score (UT-SCC-42B [5]; [21]) was 10.1 ± 0.55 DSS and the drug sensitivity score (UT-SCC-44 [6]; [17]) was 26.7 ± 2.9 DSS. It also gave a drug sensitivity score (UT-SCC-44 [6]; [18]) of 11.7 ± 3 DSS, a drug sensitivity score (UT-SCC-44 [6]; [19]) of 22.7 ± 1.1 DSS and a drug sensitivity score (UT-SCC-44 [6]; [20]) of 13.1 ± 2.4 DSS. The drug sensitivity score (UT-SCC-44 [6]; [21]) was 16.4 ± 4 DSS, the drug sensitivity score (UT-SCC-73 [7]; [17]) was 27.8 ± 0.5 DSS and the drug sensitivity score (UT-SCC-73 [7]; [18]) was 18.7 ± 4.6 DSS. The drug sensitivity score (UT-SCC-73 [7]; [19]) was 25.9 ± 0.64 DSS, the drug sensitivity score (UT-SCC-73 [7]; [20]) was 19.1 ± 1.1 DSS and the drug sensitivity score (UT-SCC-73 [7]; [21]) was 23 ± 0.68 DSS. The drug sensitivity score (UT-SCC-81; [17]) was 29.9 ± 0.51 DSS, the drug sensitivity score (UT-SCC-81; [18]) was 9.3 ± 3.1 DSS and the drug sensitivity score (UT-SCC-81; [19]) was 24 ± 1.8 DSS. The drug sensitivity score (UT-SCC-81; [20]) was 9.87 ± 0.5 DSS, the drug sensitivity score (UT-SCC-81; [21]) was 14.9 ± 1.4 DSS and the drug sensitivity score (UT-SCC-8 [8]; [17]) was 20.5 ± 1.8 DSS. For the same molecule, the drug sensitivity score (UT-SCC-8 [8]; [18]) was 10.7 ± 0.15 DSS, the drug sensitivity score (UT-SCC-8 [8]; [19]) was 18.2 ± 1.3 DSS and the drug sensitivity score (UT-SCC-8 [8]; [20]) was 17 ± 1.6 DSS. For the same molecule, the drug sensitivity score (UT-SCC-8 [8]; [21]) was 16.9 ± 1.8 DSS, the “relative IC50” value (UT-SCC-106A [9]; [17]) was 11.7 nM and the “relative IC50” value (UT-SCC-106A [9]; [18]) was 491 nM. For the same molecule, the “relative IC50” value (UT-SCC-106A [9]; [19]) was 11.5 nM, the “relative IC50” value (UT-SCC-106A [9]; [20]) was 768 nM and the “relative IC50” value (UT-SCC-106A [9]; [21]) was 19 nM. The “relative IC50” value (UT-SCC-14 [10]; [19]) was 250 nM, the “relative IC50” value (UT-SCC-14 [10]; [20]) was 416 nM and the “relative IC50” value (UT-SCC-14 [10]; [21]) was 637 nM. For the same molecule, the “relative IC50” value (UT-SCC-42A [11]; [17]) was 14.2 nM, the “relative IC50” value (UT-SCC-42A [11]; [18]) was 183 nM and the “relative IC50” value (UT-SCC-42A [11]; [19]) was 17.6 nM. For the same molecule, the “relative IC50” value (UT-SCC-42A [11]; [21]) was 40.8 nM, the “relative IC50” value (UT-SCC-42B [12]; [17]) was 12.4 nM and the “relative IC50” value (UT-SCC-42B [12]; [19]) was 42.6 nM. For the same molecule, the “relative IC50” value (UT-SCC-42B [12]; [20]) was 221 nM, the “relative IC50” value (UT-SCC-42B [12]; [21]) was 123 nM and the “relative IC50” value (UT-SCC-44 [13]; [19]) was 35.2 nM. For the same molecule, the “relative IC50” value (UT-SCC-44 [13]; [20]) was 148 nM, the “relative IC50” value (UT-SCC-73 [14]; [17]) was 20.4 nM and the “relative IC50” value (UT-SCC-73 [14]; [18]) was 95.9 nM. For the same molecule, the “relative IC50” value (UT-SCC-73 [14]; [19]) was 21 nM, the “relative IC50” value (UT-SCC-73 [14]; [20]) was 64.6 nM and the “relative IC50” value (UT-SCC-73 [14]; [21]) was 37.6 nM. For the same molecule, the “relative IC50” value (UT-SCC-8 [15]; [17]) was 122 nM, the “relative IC50” value (UT-SCC-8 [15]; [18]) was 773 nM and the “relative IC50” value (UT-SCC-8 [15]; [19]) was 159 nM. For the same molecule, the “relative IC50” value (UT-SCC-8 [15]; [20]) was 163 nM, the “relative IC50” value (UT-SCC-8 [15]; [21]) was 228 nM and the “relative IC50” value (UT-SCC-24A [16]; [17]) was 4.15 nM. For the same molecule, the “relative IC50” value (UT-SCC-24A [16]; [18]) was 77 nM, the “relative IC50” value (UT-SCC-24A [16]; [19]) was 6.19 nM and the “relative IC50” value (UT-SCC-24A [16]; [20]) was 105 nM. For the same molecule, the “relative IC50” value (UT-SCC-24A [16]; [21]) was 10.2 nM.
